Experiments:
Bemisia tabaci = assay: dual-choice insect feeding assay on tomato leaf disks, whiteflies; type: in vivo
Description: (§1) The insects used in this study were the silverleaf whitefly Bemisia tabaci (genotype B) and the green peach aphid Myzus persicae. Whiteflies were reared on tomato (Moneymaker cultivar) in a greenhouse at 26° C., at 60% relative humidity with a photoperiod of 16 h light and 8 h dark. To perform the assays, adult flies of both genders were collected from leaves with an aspirator. They were cold-anesthetized at 7° C. in a 3 cm diameter plastic cylinder covered with Parafilm® for 5 min, before being released into the Petri dish at the start of the dual-choice assay, to ensure they would not fly out before the dishes were sealed. Apterous (without wings) aphid adults were collected from Chinese cabbage (Brassica rapa L. subspecies pekinensis), on which they had been reared at room temperature in ambient light. They were collected in 2 ml test tubes and starved for about 30 min before inoculating them in the dishes. […] The assays were carried on for either 18 or 24 h and the feeding insects counted at 30 min, 1 h, 2 h, 6 h, and 18 h for whiteflies and at 30 min, 1 h, 2 h, 6 h, and 24 h for aphids. […] To convert data from the concentration in ethanol, expressed as mg mL^−1, into concentration expressed as mg gFW^−1, the value must be multiplied by 15 (the volume in μL applied on each disk) and divided by 0.034 (mass of leaf disk in grams). […]

Myzus persicae = assay: dual-choice insect feeding assay on tomato leaf disks, aphids; type: in vivo; conditions: for effect on feeding at the lowest concentration used: lowest concentration used (113 μg gFW^−1 for cinnamolide)
Description: as §1, with “dishes. In the dual-choice assays, insects were presented with circular tomato leaf areas coated with either 50% ethanol in water (control) or a solution of cinnamolide in 50% ethanol in water (treatment; two disks with each solution). Cinnamolide was firstly dissolved in 96% ethanol at a concentration of 2 mg mL^−1; subsequently an equal volume of water was added bringing the maximum concentration used to 1 mg mL^−1. Further dilutions were performed adding directly one volume of 50% ethanol in water to one volume of the previous concentration. The three concentrations used were therefore 1 mg mL^−1, 500 μg mL^−1 and 250 μg mL^−1.” for “dishes.”

[1] = 450, 225 and 113 μg gFW^−1, 6 h

With `CC1(C)CCC[C@]2(C)[C@H]3COC(=O)C3=CC[C@@H]12` [cinnamolide] the “Antifeedant Index (Al %), dose response” value (Bemisia tabaci; [1]) was “increases with the increasing concentrations applied”, the “attractant (phagostimulant) effect at the lowest concentration used” value (Bemisia tabaci; lowest concentration used (113 μg gFW^−1)) was “not seen” and the “Antifeedant Index (Al %), dose response” value (Myzus persicae; [1]) was “increases with the increasing concentrations applied”. The “effect on feeding at the lowest concentration used” value (Myzus persicae) was “attractant (phagostimulant) effect”.
For `CC1(C)CCC[C@]2(C)[C@@H](C=O)C(C=O)=CC[C@@H]12` [polygodial, reference compound], the “effect on feeding at the lowest concentration used” value (Myzus persicae) was “attractant (phagostimulant) effect”.

Source: patent US20140259223A1, “METHODS FOR PRODUCING CINNAMOLIDE AND/OR DRIMENDIOL” (Keygene N.V., priority 2011, published 2014)
